Reference: ChEMBL document CHEMBL4665723, “Evaluation of the effect of synthetic compounds derived from azidothymidine on MDA-MB-231 type breast cancer cells” (Bioorg Med Chem Lett, 2020)
pIC50: −log10 of the molar value. Calls of active or inactive are those of the source. The calls are words filed in the database; no cut-off is given here.

Assays:
MDA-MB-231 [1] = experiment: Antiproliferative activity against human MDA-MB-231 cells at 6.25 to 100 uM incubated for 24 to 48 hrs by MTT assay; type: functional, cell-based; details: dose microM 6.25-100, time hrs 24-48
MDA-MB-231 [2] = experiment: Induction of apoptosis in human MDA-MB-231 cells assessed as late apoptotic cells at 12.5 uM incubated for 48 hrs by AnnexinV and 7AAD staining based flow cytometric analysis; type: functional, cell-based
MDA-MB-231 [3] = experiment: Antiproliferative activity against human MDA-MB-231 cells at >12.5 uM incubated for 48 hrs by MTT assay; type: functional, cell-based; details: dose microM >12.5, time 48.0 hrs
MDA-MB-231 [4] = experiment: Antiproliferative activity against human MDA-MB-231 cells incubated for 24 hrs by MTT assay; type: functional, cell-based; details: MDA-MB-231, 24 h
5637 = experiment: Antiproliferative activity against human 5637 cells assessed as inhibition of cell growth incubated for 24 hrs by MTT assay; type: functional, cell-based; details: Homo sapiens, 5637, 24 h
MDA-MB-231 [5] = experiment: Antiproliferative activity against human MDA-MB-231 cells incubated for 48 hrs by MTT assay; type: functional, cell-based; details: MDA-MB-231, 48 h
MDA-MB-231 [6] = experiment: Induction of cell cycle arrest in human MDA-MB-231 cells assessed as accumulation in G2/M phase at 12.5 uM incubated for 48 hrs by PI staining based flow cytometric analysis (reference value: 19.7%); type: functional
MDA-MB-231 [7] = experiment: Induction of apoptosis in human MDA-MB-231 cells assessed as early apoptotic cells at 12.5 uM incubated for 48 hrs by AnnexinV and 7AAD staining based flow cytometric analysis; type: functional, cell-based
MDA-MB-231 [8] = experiment: Induction of cell cycle arrest in human MDA-MB-231 cells assessed as accumulation in G0/G1 phase at 12.5 uM incubated for 48 hrs by PI staining based flow cytometric analysis (reference value: 51.75%); type: functional
MDA-MB-231 [9] = experiment: Antiproliferative activity against human MDA-MB-231 cells assessed as inhibition of cell growth at >25 uM incubated for 24 hrs by MTT assay relative to control; type: functional; details: dose microM >25
MDA-MB-231 [10] = experiment: Induction of cell cycle arrest in human MDA-MB-231 cells assessed as accumulation in S phase at 12.5 uM incubated for 48 hrs by PI staining based flow cytometric analysis (reference value: 19.35%); type: functional
MCF7 = experiment: Antiproliferative activity against human MCF7 cells assessed as inhibition of cell growth; type: functional, cell-based

Cc1cn([C@H]2C[C@H](N=[N+]=[N-])[C@@H](CO)O2)c(=O)[nH]c1=O
Activity (MDA-MB-231 [1]): inactive

Cc1cn([C@H]2C[C@H](n3cc(CCCO)nn3)[C@@H](C[Te]c3ccccc3)O2)c(=O)[nH]c1=O
Activity (MDA-MB-231 [2]): inactive | Activity (MDA-MB-231 [3]): Active | pIC50 (MDA-MB-231 [4]): 4.67 | pIC50 5637: 5.70 | pIC50 (MDA-MB-231 [5]): 5.02 | Activity (MDA-MB-231 [6]): 19.95% | Activity (MDA-MB-231 [7]): inactive | Activity (MDA-MB-231 [8]): 44.9% | inhibition (INH) (MDA-MB-231 [9]): 50% | Activity (MDA-MB-231 [10]): 28.2%

CNCCC(Oc1ccc(C(F)(F)F)cc1)c1ccccc1 (configuration not stated) [FLUOXETINE]
pIC50 (MCF7): 8.00

Cc1cn([C@H]2C[C@H](n3cc(CO)nn3)[C@@H](C[Te]c3ccccc3)O2)c(=O)[nH]c1=O
Activity (MDA-MB-231 [2]): inactive | Activity (MDA-MB-231 [3]): Active | pIC50 (MDA-MB-231 [4]): 4.60 | pIC50 5637: 5.09 | pIC50 (MDA-MB-231 [5]): 4.93 | Activity (MDA-MB-231 [6]): 16.9% | Activity (MDA-MB-231 [7]): inactive | Activity (MDA-MB-231 [8]): 40.55% | inhibition (INH) (MDA-MB-231 [9]): 50% | Activity (MDA-MB-231 [10]): 27.3%
